Measurements taken from patent US5922717A, “Piperazine derivatives, medicaments comprising these compounds, their use and processes for their preparation” (priority 1994, dated 1999).
Structures can show the parent of a compound that is named as a salt.

Columns and labels:
Platelet aggregation = assay: Inhibition of collagen-induced platelet aggregation (method of Born and Cross) in platelet-rich plasma; assay type: cell-based, human (healthy test persons); details: 10 minutes at 37° C., 50% change in optical density
Method: 2. Antithrombotic Action: Method Platelet aggregation is measured in platelet-rich plasma of healthy test persons by the method of Born and Cross (J. Physiol. 170, 397 (1964)). To inhibit coagulation, 3.14% sodium citrate is added to the blood in a volume ratio of 1:10. Collagen-induced aggregation The course of the decrease in the optical density of the platelet suspension after addition of the substance which induces aggregation is measured and recorded photometrically. The rate of aggregation is concluded from the angle of inclination of the density curve. The point on the curve at which the highest light transmission exists is used to calculate the "optical density". The amount of collagen is as low as possible, but is enough to result in a reaction curve which proceeds irreversibly. Commercially available collagen from Hormonchemie, Munich is used. Before addition of the collagen, the plasma is incubated with the substance for in each case 10 minutes at 37° C. An EC50 which is based on a 50% change in "optical density" in the sense of inhibition of aggregation is determined graphically from the measurement figures obtained.

human platelets = assay: Inhibition of the binding of 3H-BIBU 52 to human platelets (fibrinogen binding test); details: 3H-BIBU 52 5 nM, human platelets in plasma, room temperature, 20 minutes
Method: 1. Inhibition of the Binding of ^3 H-BIBU 52 to Human Platelets:
A suspension of human platelets in plasma is incubated with ^3 H-BIBU 52 [=(3S,5S)-5-[(4'-amidino-4-biphenylyl)-oxymethyl]-3-[(carboxyl)methyl]-2-pyrrolidinone[3-^3 H-4-biphenylyl]], which replaces the ligand ^125 I-fibrinogen known from the literature, (see DE-A-4,214-245) and varius concentrations of the substance to be tested. The free and bound ligand are separated by centrigation and determined quantitatively by scintillation counting. The inhibition of ^3 H-BIBU 52 binding by the test substance is determined from the measurement values.
For this, donor blood is withdrawn form an anticubital vein and anticoagulated with trisodium citrate (final concentration 13 mM). The blood is centriged at 170×g for 10 minutes and the supernatant platelet-rich plasma (PRP) is removed. The residual blood is centriged off under severe conditions once more to isolate the plasma. The PRP is diluted 1:10 with autologous plasma. 750 μl are incubated with 50 μl of physiological saline solution, 100 μl of test substance solution, 50 μl of 14C-sucrose (3,700 Bq) and 50 μl of ^3 H-BIBU 52 (final centration: 5 nM) at room temperature for 20 minutes. To measure the non-specific binding, 100 μl of BIBU 52 (final concentration: […]) are employed instead of the test substance. The samples are centrifuged at 10,000×g for 20 seconds and the supernatant is removed. 100 μl of this are measured for determination of the free ligand. The pellet is dissolved in 500 μl of 0.2N NaOH, […] of scintillator and 25 μl of 5N HCl are added to 450 μl and the sample is measured. The residual plasma which still remains in the pellet is determined from the ^14 C content and the bound ligand is determined from the ^3 H measurement. After subtraction of the non-specific binding, the pellet activity is plotted against the concentration f the test substance and the concentration for 50% inhibition of binding is determined.

[1] = set-up: species or system mice; details: mouse, in vivo, iv, 200 mg/kg

Compound | EC50 (Platelet aggregation; Homo sapiens, 10 min) [nM] | IC50 (human platelets) [nM] | toxic side effects [1] | EC50 (Platelet aggregation) [nM]
CC(C)OC(=O)COc1ccc(NC(=O)N2CCN(C3CCNCC3)CC2)cc1 [4(6), Isopropyl [4-[[4-(4-piperidinyl)-piperazin-1-yl]carbonylamino]-phenoxy]acetate dihydrochloride] | 280 | 13000 | – | –
CCOC(=O)COc1ccc(NC(=O)N2CCN(C3CCNCC3)CC2)cc1 [4(13), Ethyl [4-[[4-(4-piperidinyl)-piperazin-1-yl]carbonylamino]-phenoxy]acetate dihydrochloride] | 130 | 310 | – | –
O=C(O)CC[C@H]1CC[C@H](NC(=O)N2CCN(C3CCNCC3)CC2)CC1 [Example 1(1), [3-[4-trans-[4-(4-Piperidinyl)-piperazin-1-yl]carbonylamino]cyclohexyl]propionic acid dihydrochloride] | 95 | 76 | – | –
O=C(O)CCCC1CCN(C(=O)N2CCN(C3CCNCC3)CC2)CC1 [Example 1(13), N-[[4-(4-Piperidinyl)-piperazin-1-yl]-carbonyl]-4-(4-piperidinyl)-butyric acid dihydrochloride] | 320 | 270 | – | –
O=C(O)COc1ccc(C(=O)CN2CCN(C3CCNCC3)CC2)cc1 [Example 1(19), [4-[[4-(4-Piperidinyl)-piperazin-1-yl]acetyl]phenoxyl-acetic acid trihydrochloride] | 390 | 200 | – | –
O=C(O)COc1ccc(NC(=O)N2CCN(C3CCNCC3)CC2)cc1 [Example 1(23), [4-[[4-(4-Piperidinyl)-piperazin-1-yl]carbonylaminolphenoxyl-acetic acid dihydrochloride] | 98 | 67 | no toxic side effects were observed | –
O=C(O)CCOC1CCN(C(=O)N2CCN(C3CCNCC3)CC2)CC1 [Example 1(30), N-[[4-(4-Piperidinyl)-piperazin-1-yl]carbonyl]-3-(piperidin-4-yloxy)-propionic acid dihydrochloride] | 640 | 210 | – | –
O=C(CCN1CCN(C2CCNCC2)CC1)N[C@H]1CC[C@H](C(=O)O)CC1 [Example 1, [4-trans-[3-[4-(4-Piperidinyl)-piperazin-1-yl]propionyl]-amino]cyclohexanecarboxylic acid dihydrochloride] | 240 | 510 | – | –
COC(=O)COc1ccc(C(=O)CN2CCN(C3CCNCC3)CC2)cc1 [Example 2(11), Methyl [4-[[4-(4-piperidinyl)-piperazin-1-yl]acetyl]phenoxyl-acetatetrihydrochloride] | 420 | 33000 | – | –
CCOC(=O)CCOC1CCN(C(=O)N2CCN(C3CCNCC3)CC2)CC1 [Example 2(15), Ethyl N-[[4-(4-piperidinyl)-piperazin-1-yl]-carbonyl]-3-(piperidin-4-yloxy)-propionate dihydrochloride] | > 10000 | 38000 | – | –
COC(=O)COc1ccc(NC(=O)N2CCN(C3CCNCC3)CC2)cc1 [Example 3(7), Methyl [4-[[4-(4-piperidinyl)-piperazin-1-yl]carbonylamino]phenoxy]acetate dihydrochloride] | 110 | 270 | – | –
CC(C)(C)OC(=O)COc1ccc(NC(=O)N2CCN(C3CCNCC3)CC2)cc1 [Example 3(11), tert-Butyl [4-[[4-(4-piperidinyl)-piperazin-1-yl]carbonylamino]-phenoxy]acetate dihydrochloride] | 980 | 630 | – | –
CC(C)COC(=O)COc1ccc(NC(=O)N2CCN(C3CCNCC3)CC2)cc1 [Example 4(7), Isobutyl [4-[[4-(4-piperidinyl)-piperazin-1-yl]carbonylamino]-phenoxy]acetate dihydrochloride] | 100 | 18000 | – | –
CC(C)(C)COC(=O)COc1ccc(NC(=O)N2CCN(C3CCNCC3)CC2)cc1 [Example 4(8), Neopentyl [4-[[4-(4-piperidinyl)-piperazin-1-yl]carbonylamino]-phenoxy]acetate dihydrochloride] | 120 | 170 | – | –
O=C(COc1ccc(NC(=O)N2CCN(C3CCNCC3)CC2)cc1)OC1CCCC1 [Example 4(9), Cyclopentyl [4-[[4-(4-piperidinyl)-piperazin-1-yl]carbonylamino]-phenoxy]acetate dihydrochloride] | 160 | 4700 | – | –
O=C(COc1ccc(NC(=O)N2CCN(C3CCNCC3)CC2)cc1)OC1CCCCCC1 [Example 4(10), Cycloheptyl [4-[[4-(4-piperidinyl)-piperazin-1-yl]carbonylamino]-phenoxy]acetate dihydrochloride] | 91 | 590 | – | –
CCCCOC(=O)COc1ccc(NC(=O)N2CCN(C3CCNCC3)CC2)cc1 [Example 4(11), Butyl [4-[[4-(4-piperidinyl)-piperazin-1-yl]carbonylamino]-phenoxy]acetate dihydrochloride] | 110 | 19000 | – | –
O=C(COc1ccc(NC(=O)N2CCN(C3CCNCC3)CC2)cc1)OC1CCCCC1 [Example 4(12), Cyclohexyl [4-[[4-(4-piperidinyl)-piperazin-1-yl]carbonylamino]-phenoxy]acetate dihydrochloride] | 290 | – | – | –
O=C(CC[C@H]1CC[C@H](NC(=O)N2CCN(C3CCNCC3)CC2)CC1)OC1CCCCC1 [Example 4, Cyclohexyl 3-[4-trans-[[4-(4-piperidinyl)-piperazin-1-yl]carbonylamino]-cyclohexylpropionatedihydrochloride] | 360 | 270 | – | –
O=C(O)CN1CCC(OCC(=O)N2CCN(C3CCNCC3)CC2)CC1 [Example 22(8), [4-[[[4-(piperidin-4-yl)-piperazin-1-yl]-carbonyl]-methyloxy]-piperidin-1-yl]-acetic acid] | 100 | 27 | – | –
O=C(O)CN1CCC(CCC(=O)N2CCN(C3CCNCC3)CC2)CC1 [Example 24(1), [4-[2-[[4-(Piperidin-4-yl)-piperazin-1-yl]-carbonyl]-ethyl]-piperidin-1-yl]-acetic acid trihydrochloride] | 94 | 12 | – | –
N-[4-[[4-(4-Piperidinyl)-piperazin-1-yl]carbonyl]piperi-dinyl]-β-alanine trihydrochloride [Example 1(5)] | – | 78 | – | 250
